According to article PMC2574866 (Drug metabolism and disposition: the biological fate of …, 2008):
Like-named read-outs stand apart in the source and are kept apart here.

Legend:
[1] = test system: sandwich-cultured rat hepatocytes; details: for biliary excretion index (BEI), effect of BSA-FAF / unbound intrinsic biliary clearance (intrinsic Cl'biliary), effect of BSA-FAF: 4% (w/v) BSA-FAF vs no BSA or BSA
[2] = literature value, cited from earlier work
[3] = target: bovine serum albumin (BSA) / essentially fatty acid-free BSA (BSA-FAF) (Bos taurus, UniProt P02769)
Sequence of bovine serum albumin (BSA) / essentially fatty acid-free BSA (BSA-FAF) (P02769 25-607): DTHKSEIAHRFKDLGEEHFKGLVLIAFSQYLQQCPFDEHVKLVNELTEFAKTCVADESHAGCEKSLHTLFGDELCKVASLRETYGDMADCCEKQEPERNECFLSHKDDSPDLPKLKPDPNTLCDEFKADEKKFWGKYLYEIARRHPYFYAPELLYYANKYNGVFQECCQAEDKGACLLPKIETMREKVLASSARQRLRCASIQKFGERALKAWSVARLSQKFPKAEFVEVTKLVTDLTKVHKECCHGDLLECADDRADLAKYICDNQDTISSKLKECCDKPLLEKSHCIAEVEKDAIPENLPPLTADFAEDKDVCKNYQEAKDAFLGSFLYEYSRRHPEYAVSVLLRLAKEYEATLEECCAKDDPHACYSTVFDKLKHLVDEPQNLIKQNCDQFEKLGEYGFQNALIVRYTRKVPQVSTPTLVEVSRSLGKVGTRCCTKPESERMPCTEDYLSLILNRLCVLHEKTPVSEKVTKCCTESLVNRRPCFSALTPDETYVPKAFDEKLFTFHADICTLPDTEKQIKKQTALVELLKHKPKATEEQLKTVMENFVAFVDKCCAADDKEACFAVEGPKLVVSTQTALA

[4] = 4% (w/v) BSA vs no BSA, 10 min incubation
[5] = addition of 1 mM Ca2+ (calcium chloride) to BSA-FAF, n = 1 liver
[6] = six long chain fatty acids added to BSA-FAF, n = 1 liver

SMILES | biliary excretion index (BEI), effect of BSA [1, 4] | unbound intrinsic biliary clearance (intrinsic Cl'biliary), effect of BSA [1, 4] | biliary excretion index (BEI), effect of BSA-FAF ([1]; 10 min incubation) | unbound intrinsic biliary clearance (intrinsic Cl'biliary), effect of BSA-FAF ([1]; 10 min incubation) | BEI in the presence of BSA-FAF, effect of additional Ca2+ [1, 5] | intrinsic Cl'biliary in the presence of BSA-FAF, effect of additional Ca2+ [1, 5] | unbound fraction (fu) ([2]; ref Lacy et al., 2002) | fu dependence on compound concentration [3] | fu in the presence of BSA compared to BSA-FAF [3] | BEI in the presence of BSA-FAF, effect of addition of long chain fatty acids [1, 6] | intrinsic Cl'biliary in the presence of BSA-FAF, effect of addition of long chain fatty acids [1, 6] | unbound fraction (fu) ([2]; ref Hatanaka, 2000) | fu in the presence of BSA-FAF, effect of addition of long chain fatty acids [3] | accumulation in sandwich-cultured rat hepatocytes ([1]; in the presence of BSA or BSA-FAF vs no BSA) | unbound fraction (fu) ([2]; ref Forker and Luxon, 1981, Hung et al., 2005) | binding to albumin ([3]; bovine)
C[C@H]1O[C@@H](O[C@H]2[C@@H](O)C[C@H](O[C@H]3[C@@H](O)C[C@H](O[C@H]4CC[C@@]5(C)[C@H](CC[C@@H]6[C@@H]5C[C@@H](O)[C@]5(C)[C@@H](C7=CC(=O)OC7)CC[C@]65O)C4)O[C@@H]3C)O[C@@H]2C)C[C@H](O)[C@@H]1O [digoxin] | not altered | not altered | significantly decreased | significantly decreased | unable to restore | unable to restore | ~ 0.7 | concentration-independent | significantly higher |  |  |  |  |  |  | 
CC[C@H](C)C(=O)O[C@H]1C[C@H](O)C=C2C=C[C@H](C)[C@H](CC[C@@H](O)C[C@@H](O)CC(=O)O)[C@H]21 [pravastatin] |  | not significantly different | significantly decreased | significantly decreased |  |  |  | concentration-independent | significantly higher | unable to mitigate this effect | unable to mitigate this effect | ~ 0.5 | unable to mitigate this effect |  |  | 
C[C@H](CCC(=O)NCCS(=O)(=O)O)[C@H]1CC[C@H]2[C@@H]3[C@H](O)C[C@@H]4C[C@H](O)CC[C@]4(C)[C@H]3C[C@H](O)[C@]12C [taurocholate] |  | unaffected |  |  |  |  |  | concentration-independent | significantly higher |  |  |  |  | notably decreased | ~ 0.15 | approximately 85%
